Laboratory results reported in patent US20160144021A1, “Vaccine Composition And Method Of Use” (MEDIMMUNE, LLC, priority 2013, published 2016).

Columns and labels:
Format in all cases: in vivo
[1] = system: RSV-F derived MHC II (I-Ed)-binding peptides; experiment: F-specific CD4 T-cell cytokine profiling of restimulated splenocytes, naive BALB/c mice; details: splenocytes 4 days post challenge, 72 h restimulation
[2] = system: RSV sF protein; experiment: IFNγ ELISPOT of splenocytes, naive Sprague Dawley rats; details: Day 46, 4 days post RSV challenge
Description: Systemic cellular immune responses to vaccination were evaluated in all available animals at Day 46, 4 days post RSV challenge. For each of the groups, individual splenocyte samples were prepared. T-cell readouts were assessed by ELISPOT counts of IFNγ-secreting cells following a 36-48 hour restimulation with RSV sF. Significance was calculated using GraphPad Prism 1-way ANOVA with either Tukey or Bonferroni post test with a significance cutoff of p<0.05.

[3] = system: RSV F peptide pool of overlapping 15-mers; experiment: F-specific IFNγ ELISPOT of PBMC, cynomolgus monkeys
Description: To determine whether immunization with sF formulated with GLA-SE enhanced an F-specific T cell response, F-specific IFNγ T cell responses were measured by ELISPOT following restimulation with a peptide pool of overlapping 15-mers derived from the RSV F protein sequence. […] While the number of T cells in the sF+GLA-SE group decreased over time, one animal still met the definition of a positive responder out to day 169. At Day 169, 5 months post vaccination, a booster vaccination was given. […] In comparison, 0 of 4 monkeys in the sF alone group responded with an increase in IFNγ secreting F-specific T cells (mean 5 SFC/million).

[4] = Lung histopathology after RSV challenge, naive BALB/c mice; details: H&E lung sections day 4 post RSV challenge
Description: Lung sections (5 micron) were prepared using a microtome from paraffin-embedded formalin-fixed lung lobes harvested at day 4 post RSV challenge. Sections stained with hematoxylin and eosin were digitally scanned and examined by a licensed pathologist. Lung sections were evaluated for pulmonary lesion characteristics such as presence of bronchiolar hyperplasia, alveolitis, eosinophilic infiltrate and infiltration of the peribronchiolar/perivascular spaces.

[5] = system: RSV sF; experiment: Serum F-specific IgA ELISA, 1x RSV seropositive BALB/c mice; details: Day 14; RSV sF at 10 μg, RSV sF+GLA-SE at any of the 3 doses
Description: Serology readouts were made at Days 0, 14, 28, 42, 56, and 73 for each group. Animals were lightly anesthetized with isoflurane and bled intraorbitally. Serum was separated and stored at −20° C. and thawed for testing. Total anti-F IgG were measured at each timepoint, with anti-F IgG1 and anti-F IgG2a ELISA endpoint dilution titers measured at Day 0 and Day 42. RSV neutralization titer was determined by a RSV A2-GFP microneutralization assay. The polyclonal nature of the anti-F IgG response was evaluated on Day 42 by competition ELISA with site-specific monoclonal antibodies to RSV-F. Anti-F IgA endpoint dilution titers were measured at Day 14 for each group.

[6] = system: RSV A2; experiment: Serum RSV neutralizing titers, naive cotton rats; details: day 42, naive cotton rats
Description: RSV neutralizing antibody titers in heat-inactivated mouse sera at indicated timepoints were measured using a GFP-tagged RSV A2 micro-neutralization assay as previously described (Bernstein D I, et al. (2012) Phase 1 study of the safety and immunogenicity of a live, attenuated respiratory syncytial virus and parainfluenza virus type 3 vaccine in seronegative children. Pediatr Infect Dis J 31: 109-114). Briefly, confluent Vero cell monolayers were infected with 500 PFU of virus alone or virus pre-mixed with serially diluted serum samples, then incubated at 33° C. and 5% CO2 for 22 hrs. Plates were washed of free virus and GFP fluorescent viral foci were enumerated using the IsoCyte image scanner (Blueshift, Sunnyvale, Calif.).
Cotton rats are a well established model for RSV studies and are often used in the preclinical evaluation of potential RSV vaccine candidates. To confirm the immune profile of GLA-SE adjuvanted RSV sF vaccine in a second RSV challenge model, individual cotton rats were administered the same RSV sF subunit vaccines at similar doses used for mice. RSV sF at 0.3 μg without adjuvant or adjuvanted with GLA, SE, GLA-SE, or alum was given intramuscularly at days 0 and 22.

[7] = system: IL-5, IL-13, IFNγ, IL-17, eotaxin; experiment: Cytokines in lung homogenates after RSV challenge, naive BALB/c mice; parameters: pulmonary eotaxin levels (mean): unit not given here
Description: Lung homogenates were clarified by centrifugation prior to use. […] F-specific splenic cytokine production was determined by subtracting media alone values from F stimulated values.

[8] = system: RSV sF; experiment: Serum RSV F-specific IgG, IgG1, IgG2a ELISA, highly seropositive BALB/c mice; details: day 84
Description: One hundred three female BALB/c mice (Charles River), ages 6-8 weeks old, were divided into 13 groups. Group 1 had 7 mice and groups 2 through 13 had 8 mice. Following anaesthetization groups 1 through 12 were dosed with 1×10^6 plaque forming units (PFU) in 100 μL of live RSV via an intranasal (IN) route on Day 0 and Day 35. Group 13 was not exposed to RSV. On Day 56, groups 1 through 11 were immunized with placebo (PBS) or vaccine article via an intramuscular (IM) route following anesthesia with isoflurane. The vaccine articles were formulated in a total of 100 μL with 50 μL given in each hind limb. Group 12 was anesthetized with isoflurane and immunized with 1×10^6 PFU in 100 μL of live RSV via an IN route. […] Sera were obtained from retro orbital blood collection at study days 0, 28, 56 70 and 84, separated from whole blood and stored at −20° C. until evaluated. Spleens from 4 animals in each group were harvested for T cell assays on Day 67, 11 days post immunization, or at day 88, 4 days post challenge. Lung cytokines quantified at 4 days after challenge in individual lung homogenates by luminex assay (Milipore).

[9] = system: RSV A2; experiment: Lung and nose RSV titers after challenge, vaccinated Sprague Dawley rats; details: 10 or 100 μg RSV sF, 4 days post challenge
Description: In a subsequent study, the immunogenicity and protection following a prime-boost regimen of RSV-SF was evaluated. 40 naive female Sprague Dawley rats were divided into designated vaccine cohorts of 5-6 animals per cohort. Briefly, test groups were given RSV sF (10 μg or 100 μg per animal) without adjuvant or RSV sF (10 μg or 100 μg per animal) with GLA-SE (2.5 μg in 2% SE). Negative control groups were dosed with placebo (PBS buffer) or adjuvant GLA-SE (2.5 μg/2%) without RSV sF. […] Groups 1-6 were inoculated IM with 500 μL of designated vaccine article on Day 0 and Day 22, while Group 7 was inoculated IN with 200 μL of RSV A2 virus on day 0 only. […] Rats were euthanized at 4 days post challenge on Day 46, the day of peak viral replication determined from Study 1. Lungs (excluding 1 lobe which was formalin-fixed) and noses were homogenized and quantified for viral titers.

[10] = lung homogenates 4 days post RSV challenge

## RSV sF: RSV soluble F protein, amino acids 1-524 of the RSV A2 F sequence lacking the transmembrane domain, given without adjuvant
[1]
  F-specific CD4 T-cell cytokine production profile: Th2-type response characterized by IL-5 and IL-13 cytokines
[2]; 10 μg RSV sF
  F-specific IFNγ ELISPOT responses: 64.00 SFU/million cells
[2]; 100 μg RSV sF
  F-specific IFNγ ELISPOT responses: 87.78 SFU/million cells
[3]; Day 42
  mean F-specific IFNγ ELISPOT response: 8 SFC/million PBMC
[3]; Day 42, ≥50 SFC/million increase and 4-fold rise from day −7
  animals with positive F-specific IFNγ ELISPOT response: 0 of the 4
[3]; Day 183
  animals with positive F-specific IFNγ ELISPOT response: 0 of 4
  mean F-specific IFNγ ELISPOT response: 5 SFC/million
[4]
  pulmonary inflammation / lesion scores: increased pulmonary lesion scores
[5]
  serum F-specific IgA titers versus seropositive animals vaccinated with PBS: significantly higher serum F-specific IgA titers
[6]
  RSV neutralizing titers (mean): 4.3 log2
[7]; 4 days post RSV challenge, ratio >1.0 = more Th1-type
  mean IFNγ to IL-5 ratio in lung homogenates: 0.3
[7]; [10]
  IL-5 and IL-13 in the lungs: detected
  pulmonary eotaxin levels (mean): 911
[8]
  Th bias from RSV sF-specific IgG1 and IgG2a serum titers: maintained the Th1 bias
[9]
  animals per group with titers below the limit of detection: 1-2
